According to ChEMBL document CHEMBL5131375, “Recent Developments in the Use of Kinase Inhibitors for Management of Viral Infections” (J Med Chem, 2022):

What was measured:
Human betaherpesvirus 5 [1] = assay: Antiviral activity against HCMV AD169 infected in HFF cells incubated for 96 hrs; assay type: functional, organism-based; details: Human betaherpesvirus 5, AD169, HFF
Human betaherpesvirus 5 [2] = assay: microbe, parasite or virus in culture; assay type: functional, organism-based
Human betaherpesvirus 5 [3] = assay: Antiviral activity against HCMV Merlin (RCMV 1111) infected in HFF cells incubated for 96 hrs; assay type: functional, organism-based; details: Human betaherpesvirus 5, Merlin (RCMV 1111)
dengue virus type 4 = assay: microbe, parasite or virus in culture; assay type: functional, organism-based
in vitro [4] = details: human
dengue virus type 1 = assay: microbe, parasite or virus in culture; assay type: functional, organism-based
dengue virus type 2 = assay: microbe, parasite or virus in culture; assay type: functional, organism-based
dengue virus type 3 = assay: microbe, parasite or virus in culture; assay type: functional, organism-based
Hepatitis C virus [5] = assay: microbe, parasite or virus in culture
Hepatitis C virus [6] = assay: microbe, parasite or virus in culture; remark: listed apart in the source
in vitro [7] = details: human; remark: listed apart in the source
Hepatitis C virus [8] = assay: microbe, parasite or virus in culture; details: subtype 1b
in vitro [9] = details: human, hela
Coxsackievirus B3 = assay: microbe, parasite or virus in culture; details: Enterovirus B
Human rhinovirus sp. = assay: microbe, parasite or virus in culture
Influenza A virus [10] = assay: microbe, parasite or virus in culture; assay type: functional, organism-based
[11] = Cytotoxicity against human A549 cells; assay type: toxicity, cell-based
Influenza A virus [12] = assay: microbe, parasite or virus in culture; assay type: functional, organism-based; details: pdmH1N1
Influenza A virus [13] = assay: microbe, parasite or virus in culture; assay type: functional, organism-based; details: H3N2
Influenza A virus [14] = assay: Antiviral activity against influenza A virus HN79; assay type: functional, organism-based
Dengue virus = assay: microbe, parasite or virus in culture
[15] = Cytotoxicity against HFL1 cells; assay type: toxicity, cell-based; details: human
Human alphaherpesvirus 1 [16] = assay: Antiviral activity against HSV-1 in HFL1 cells incubated for 24 hrs; assay type: functional, organism-based; details: Human alphaherpesvirus 1, HFL1, 24 h
Human alphaherpesvirus 1 [17] = assay: microbe, parasite or virus in culture; assay type: functional, organism-based
Chikungunya virus = assay: microbe, parasite or virus in culture; assay type: functional, organism-based
in vitro [18] = details: chlorocebus sabaeus, Vero cells
Junin virus = assay: microbe, parasite or virus in culture; assay type: functional, organism-based; details: Mammarenavirus juninense
Human alphaherpesvirus 1 [19] = assay: Antiviral activity against HSV-1 at 10 uM relative to control; assay type: functional
Influenza A virus [20] = assay: microbe, parasite or virus in culture; assay type: functional, organism-based; details: H1N1pdm09
SARS-CoV-2 [21] = assay: Antiviral activity against SARS-CoV-2 assessed as reduction of viral load at 400 to 800 nM; assay type: functional, Severe acute respiratory syndrome coronavirus 2; design: scale not given: the % may be the effect or the level left; details: dose 400-800 nM
[22] = Cytotoxicity against liver spheroids (unknown origin); assay type: toxicity, tissue-based
[23] = Cytotoxicity against osteoblast cells (unknown origin); assay type: toxicity, cell-based, Calvarial osteoblast
SARS-CoV-2 [24] = assay: Antiviral activity against SARS-CoV-2 assessed as reduction of viral load at 400 nM relative to control; assay type: functional, Severe acute respiratory syndrome coronavirus 2; design: scale not given: the % may be the effect or the level left
[25] = biological target: AP2-associated protein kinase 1 (Homo sapiens, UniProt Q2M2I8)
Chain of AP2-associated protein kinase 1 (Q2M2I8 whole entry): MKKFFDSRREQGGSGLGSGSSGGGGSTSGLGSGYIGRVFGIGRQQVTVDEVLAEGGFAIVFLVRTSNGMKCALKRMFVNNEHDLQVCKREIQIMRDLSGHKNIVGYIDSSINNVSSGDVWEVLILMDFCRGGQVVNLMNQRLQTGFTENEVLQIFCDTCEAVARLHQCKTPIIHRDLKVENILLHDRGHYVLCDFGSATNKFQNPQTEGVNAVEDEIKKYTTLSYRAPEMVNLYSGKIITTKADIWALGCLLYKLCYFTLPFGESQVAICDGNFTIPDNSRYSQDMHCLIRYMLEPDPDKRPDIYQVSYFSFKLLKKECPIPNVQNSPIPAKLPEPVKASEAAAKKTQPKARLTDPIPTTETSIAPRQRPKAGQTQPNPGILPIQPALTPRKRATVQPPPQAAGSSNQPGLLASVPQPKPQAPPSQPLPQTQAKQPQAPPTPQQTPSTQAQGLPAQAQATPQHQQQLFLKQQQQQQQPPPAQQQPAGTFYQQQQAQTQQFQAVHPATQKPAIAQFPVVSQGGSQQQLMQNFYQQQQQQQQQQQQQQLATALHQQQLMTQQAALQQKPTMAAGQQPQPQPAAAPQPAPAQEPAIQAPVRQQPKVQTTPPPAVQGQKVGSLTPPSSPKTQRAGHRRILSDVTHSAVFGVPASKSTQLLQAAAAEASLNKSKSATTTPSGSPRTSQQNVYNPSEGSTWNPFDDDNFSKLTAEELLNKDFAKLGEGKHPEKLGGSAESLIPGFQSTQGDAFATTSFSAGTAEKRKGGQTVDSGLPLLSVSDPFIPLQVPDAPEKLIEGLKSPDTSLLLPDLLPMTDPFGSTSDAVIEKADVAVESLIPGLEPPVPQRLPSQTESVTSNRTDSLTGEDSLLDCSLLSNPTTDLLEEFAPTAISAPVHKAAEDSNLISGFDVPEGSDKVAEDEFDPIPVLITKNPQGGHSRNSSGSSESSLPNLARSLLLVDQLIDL

Vero C1008 = assay: Cytotoxicity against African green monkey Vero E6 cells at 250 nM; assay type: toxicity, cell-based; details: chlorocebus sabaeus, vero c1008, 0.25 µM
SARS-CoV-2 [26] = assay: microbe, parasite or virus in culture; assay type: functional, organism-based; details: Severe acute respiratory syndrome coronavirus 2
SARS-CoV-2 [27] = assay: microbe, parasite or virus in culture; assay type: functional, organism-based; details: Severe acute respiratory syndrome coronavirus 2; remark: listed apart in the source

COc1cc[nH]c1/C=C1\C(=O)Nc2ccc([N+](=O)[O-])c(N3CC[C@@H](O)C3)c21
EC50 (Human betaherpesvirus 5 [1]): 10 nM
EC50 (Human betaherpesvirus 5 [2]): 10 nM
EC50 (Human betaherpesvirus 5 [3]): 1300 nM

COc1ccc(CC(N)c2csc(Nc3ncccn3)n2)cc1 (stereo unspecified)
EC50 (dengue virus type 4): 5 µM
CC50 (in vitro [4]; Huh-7.5.1 cells): > 100 µM
EC50 (dengue virus type 1): 900 nM
EC50 (dengue virus type 2): 7.6 µM
EC50 (dengue virus type 3): 2600 nM

Cc1nc2c(NCc3cccc(S(C)(=O)=O)c3)nccn2c1-c1ccc(O)c(F)c1
EC50 (Hepatitis C virus [5]): 100 nM
EC50 (Hepatitis C virus [6]): 100 nM
CC50 (in vitro [7]; huh-7): > 30 µM

COc1cc(-c2cnc3c(N4CCOCC4)snc3c2)cc(OC)c1OC
EC50 (Hepatitis C virus [5]): 2500 nM
CC50 (in vitro [4]; Huh-7.5.1 cells): 23.2 µM

COc1ccc(-c2cnc3c(OC(C)C)snc3c2)cc1OC
CC50 (in vitro [4]; huh7.5.1): > 10 µM

CC(=O)NCCNc1cc(Cl)nn2c(-c3cccc(S(=O)(=O)N(C)C)c3)c(C)nc12
EC50 (Hepatitis C virus [8]): 80 nM
CC50 (in vitro [9]): > 50 µM
EC50 (Coxsackievirus B3): 140 nM
EC50 (Human rhinovirus sp.): 1030 nM

Cc1ccc([N+](=O)[O-])cc1S(=O)(=O)N(C)/N=C/c1cnc2ccc(Br)cn12
IC50 (Influenza A virus [10]): 40 nM
CC50 [11]: > 100 µM
IC50 (Influenza A virus [12]): 40 nM
IC50 (Influenza A virus [13]): 40 nM
IC50 (Influenza A virus [14]): 40 nM

COc1ccc(-c2cnc3[nH]cc(C#Cc4cccnc4)c3c2)cc1OC
EC50 (Dengue virus): 43 nM
CC50 (in vitro [4]; Huh-7.5.1 cells): 17 µM

COc1ccc(-c2ccc3nsc(N4C[C@@H](C)O[C@@H](C)C4)c3n2)cc1OC
EC50 (Dengue virus): 1000 nM
CC50 (in vitro [4]; huh7.5.1): > 10 µM

Cc1c(NC(=O)c2cccc(NC(=O)C(C)NC(=O)c3ccco3)c2)c(=O)n(-c2ccccc2)n1C (stereo unspecified)
CC50 [15]: 2.04 mM
IC50 (Human alphaherpesvirus 1 [16]): 29 µM
EC50 (Human alphaherpesvirus 1 [17]): 64 µM

CC1Oc2ccc(NC(=O)[C@@H](Cc3c[nH]c4ccccc34)NC(=O)c3ccc(F)cc3)cc2NC1=O (stereo partly specified)
CC50 [15]: 1.41 mM
IC50 (Human alphaherpesvirus 1 [16]): 29 µM
EC50 (Human alphaherpesvirus 1 [17]): 29 µM

CCNS(=O)(=O)c1cc(-c2c(C)nc3c(NCc4ccnc(CC)c4)cc(Cl)nn23)ccc1OO
EC50 (Hepatitis C virus [8]): 29 nM
CC50 (in vitro [9]): 18.3 µM
EC50 (Coxsackievirus B3): 58 nM
EC50 (Human rhinovirus sp.): 75 nM

CC(C)c1ccc(NC(=O)c2csc(C(O)C(C)C)n2)cc1 (stereo unspecified)
EC50 (Chikungunya virus): 2200 nM
CC50 (in vitro [7]; Huh-7 cells): > 50 µM

Cc1cc(-c2cc(C(=O)Nc3nc(CN4CCCC(C)C4)cs3)c3c(C)noc3n2)c(C)o1 (stereo unspecified)
CC50 [15]: 0.159 mM
IC50 (Human alphaherpesvirus 1 [16]): 29 µM
EC50 (Human alphaherpesvirus 1 [17]): 32 µM

C/C(O)=C(/C#N)C(=O)Nc1ccc(C(F)(F)F)cc1
CC50 [11]: > 100 µM
CC50 (in vitro [18]): 223 µM
EC50 (Junin virus): 16 µM

O=C(Nc1c[nH]nc1-c1nc2ccc(CN3CCOCC3)cc2[nH]1)NC1CC1 [AT-9283]
Activity (Human alphaherpesvirus 1 [19]): 70%

Cc1cc(C(=O)NOCCO)c(Nc2ccc(I)cc2F)n(C)c1=O [AZD-8330]
CC50 [11]: > 100 µM
IC50 (Influenza A virus [20]): 40 nM

CCS(=O)(=O)N1CC(CC#N)(n2cc(-c3ncnc4[nH]ccc34)cn2)C1 [BARICITINIB]
Activity (SARS-CoV-2 [21]): 30%
CC50 [22]: > 5 µM
CC50 [23]: > 50 µM
Activity (SARS-CoV-2 [24]): 30%
IC50 [25]: 17 nM

CNCc1ccc(-c2cc(-c3nc(-c4ccc(S(=O)(=O)C(C)C)cc4)cnc3N)on2)cc1 [BERZOSERTIB]
Activity (Vero C1008): Non-Toxic
IC50 (SARS-CoV-2 [26]): 4.28 nM
IC50 (SARS-CoV-2 [27]): 4.28 nM
